Test results published in patent publication US20120122906A1, “NOVEL SULFONAMIDE DERIVATIVE AND PHARMACEUTICAL PRODUCT CONTAINING SAME” (KOWA COMPANY, LTD., priority 2009, published 2012).

Columns and labels:
[1] = biological target: T1, angiotensin II type 1 receptor (Oryctolagus cuniculus, UniProt P34976); assay: Angiotensin II antagonistic activity in isolated rabbit blood vessels (angiotensin II-induced contraction of thoracic aorta ring); conditions: 0.1 μM compound, angiotensin II (10 nM)-induced contraction, read-out: Angiotensin II activity inhibition rate (%) at 0.1 μM concentration
T1 construct: By using a specimen of isolated rabbit blood vessels; from tissue; host or cells: rabbit thoracic aorta ring (New Zealand White, male)
T1 sequence (P34976 1-359): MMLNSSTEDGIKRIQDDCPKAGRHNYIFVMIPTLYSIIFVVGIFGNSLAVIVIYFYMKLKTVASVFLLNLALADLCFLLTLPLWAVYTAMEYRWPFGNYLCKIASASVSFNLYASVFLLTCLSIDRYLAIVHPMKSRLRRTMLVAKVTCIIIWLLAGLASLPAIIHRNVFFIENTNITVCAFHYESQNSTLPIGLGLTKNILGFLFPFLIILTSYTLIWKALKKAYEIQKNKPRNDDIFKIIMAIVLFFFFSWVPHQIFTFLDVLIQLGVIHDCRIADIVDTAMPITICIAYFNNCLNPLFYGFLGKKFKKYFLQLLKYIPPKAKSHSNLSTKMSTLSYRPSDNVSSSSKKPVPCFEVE
Protocol: By using a specimen of isolated rabbit blood vessels, antagonistic activity of the compounds of the invention against angiotensin II type 1 receptor was estimated from a dose-response curve of angiotensin II-induced blood vessel contraction. Specifically, the specimen of thoracic aorta ring of a rabbit (New Zealand White: male, 2.4 to 3.0 kg) was suspended in a magnus bath filled with Krebs-Henseleite buffer (composition: 118 mM NaCl, 4.7 mM KCl, 2.55 mM CaCl2, 1.18 mM MgSO4, 1.18 mM KH2PO4, 24.88 mM NaHCO3, and 11.1 mM D-glucose), and angiotensin II (10 nM)-induced contraction was obtained in the presence of the compounds of each example (1 nmol to 10 μmol/L). During the measurement, the inside temperature of the magnus bath was maintained at 37° C. and the bath was continuously ventilated with a sufficient amount of mixed gas (95% O2 and 5% CO2). The angiotensin II-induced contraction was converted into a relative value (%) that is based on the angiotensin II (10 nM)-induced contraction in the absence of the compounds of each example. From the concentration-response curve obtained therefrom, 50% inhibition concentration (IC50 value) was calculated by using SAS Preclinical Package Ver 5.0 (trade name, manufactured by SAS institute Japan Co., Tokyo, Japan), which is a statistical analysis program.

human PPARγ2 = biological target: T2, human PPARγ2 (Homo sapiens, UniProt P37231); assay: PPARγ activation activity, Gal4-PPARγ2 LBD luciferase transfection assay in COST cells; assay type: cell-based; conditions: Gal4-human PPARγ2 LBD luciferase reporter, 16 hours, rosiglitazone = 100%
T2 construct: the amino acids 182 to 505 of human PPARγ2; expressed in transfected cells
T2 sequence (P37231 182-505): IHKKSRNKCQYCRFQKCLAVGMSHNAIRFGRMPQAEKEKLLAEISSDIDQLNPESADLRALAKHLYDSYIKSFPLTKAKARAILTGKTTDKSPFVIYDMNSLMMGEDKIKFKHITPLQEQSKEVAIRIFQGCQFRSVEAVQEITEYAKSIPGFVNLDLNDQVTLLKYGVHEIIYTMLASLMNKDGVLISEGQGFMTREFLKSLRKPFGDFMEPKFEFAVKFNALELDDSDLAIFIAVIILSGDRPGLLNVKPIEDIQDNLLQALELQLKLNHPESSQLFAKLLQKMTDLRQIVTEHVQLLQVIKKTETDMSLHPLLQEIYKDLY
Protocol: The agonistic activity of the compounds of the invention on PPARγ was measured based on the transfection assay using COST cells (DS Pharma Biomedical Co., Ltd., Osaka, Japan), which are the cell line derived from the kidney of the African green monkey. COST cells were cultured under 5% CO2 concentration, and DMEM medium containing 10% fetal bovine serum, glutamic acid, and antibiotics was used as a medium.
As an expression vector, a chimera in which DNA binding domain of Gal4, which is a yeast transcription factor, and ligand binding domain of human PPARγ2 are fused, i.e., a fused product between the amino acids 1 to 147 of Gal4 transcription factor and the amino acids 182 to 505 of human PPARγ2, was used. Furthermore, as a reporter vector, a firefly luciferase containing five copies of Gal4 recognition sequence in the promoter region was used. Plasmid transfection to the cells was performed according to a method which uses jetPEI (trade name, manufactured by Funakoshi Co., Ltd., Tokyo, Japan). Furthermore, β-galactosidase expression vector was employed as an internal standard.
After the transfection of the cells, the medium was replaced with a DMEM medium (containing 1% serum) added with the compound, and the cells were further cultured for 16 hours. After that, the luciferase activity and β-galactosidase activity in the cell lysis solution were measured.
For the present test, dimethyl sulfoxide (DMSO) was used for dissolution and dilution of the test compounds, and during the cell treatment, the DMSO concentration in DMEM medium (containing 1% serum) was adjusted to 0.1%. As a positive compound, rosiglitazone (trade name, manufactured by ALEXIS Corporation, Switzerland) was used. The luciferase activity (%) of the test compounds (1 to 30 μmol/L) was calculated when the luciferase activity of rosiglitazone (3 to 10 μmol/L) is 100% and the luciferase activity in the absence of the test compound is 0%. The 50% effective concentration of the test compound (EC50, 50% effect concentration) was calculated by using SAS Preclinical Package Ver 5.0 (trade name, manufactured by SAS institute Japan Co., Tokyo, Japan), which is a statistical analysis program.
Under the same condition, the PPARγ activation activity of telmisartan, i.e., EC50, was 1 to 5 μM. In addition, it was confirmed that compounds of Examples not shown in Table 2 also have PPARγ activation activity at a concentration of 30 μM.

- inhibition at 0.1 µM [1]: 100%
- EC50 (human PPARγ2): 3.52 µM
SMILES: CCCCc1nc(C)n(-c2ncc(OCC)cn2)c(=O)c1Cc1ccc(-c2ccccc2S(=O)(=O)NC(=O)C2CCCC2)cc1 [Example 9, N-{4′-{[4-butyl-1-(5-ethoxypyrimidin-2-yl)-2-methyl-6-oxo-1,6-dihydropyrimidin-5-yl]methyl}biphenyl-2-ylsulfonyl}cyclopentanecarboxamide]
